The record followed here is patent publication US20240269321A1, “PREPARATION AND STORAGE OF LIPOSOMAL RNA FORMULATIONS SUITABLE FOR THERAPY” (BioNTech SE, priority 2020, published 2024).

Data set [1] is described as follows: DOPE solubility in ethanol (HPLC). In kind it is physicochemical. The protocol: DOPE and DOPE/DOTMA solubility in ethanol was investigated by preparing 300 mM DOPE or 330 mM DOPE/DOTMA (66:33) solutions in ethanol. The lipids were dissolved by incubating the lipid solutions at 37° C. for 20 minutes. The DOPE solutions were centrifuged at 17000 G for 1h and the DOPE concentration was measured in the supernatant by HPLC. The DOTMA/DOPE solutions were filtered through a 0.22 μm PES syringe filter and the lipid concentration was measured in the filtrate by HPLC. Lipid concentration in the different liposome formulations were measured by HPLC (Agilent technologies. Santa Clara. USA) using a Sunfire C18 2.5 μm 4.6×75 mm column (Waters. Massachusetts. USA) and a wave length of 205 nm. Mobile phase A was a mixture of 70% methanol/30% isopropanol/0.1% TFA, mobile phase B was a mixture of 55% methanol/15% isopropanol/30% water/0.1% TFA. Liposomes samples were or not diluted with water to 3 mM total lipid concentration. It has been tested if DOPE-containing solutions of higher concentration can be prepared (in the supersaturated state) and used for ethanol injection for liposome manufacturing (next section).

Data set [2] in a line: Freezing of RNA lipoplexes with cryoprotectants and NaCl (particle size). In kind it is physicochemical. Particulars: for preservation of particle size after a single freezing step: 20% (w/v) cryoprotectant, 0 to 60 mM NaCl, −30° C.
Source text: Methods: Different compounds representative for monosaccharides (glucose and sorbitol), disaccharides (sucrose and trehalose), amino acids (arginine, prolin), triols (glycerin) as well as cryoprotectant systems containing mixtures of different sugars (mannitol and sucrose) were investigated in order to identify suited cryoprotectants (FIGS. 25 and 26). Therefore RNA lipoplexes were frozen in the presence of increasing concentration of these compounds. In order to identify minimum content of cryoprotectant at a certain concentration of NaCl, RNA lipoplexes were frozen in the presence of increasing amounts of sucrose or trehalose as representative cryoprotectants (Table 7). The samples were initially frozen a single time in order to determine the concentration range of cryoprotectant to be investigated in detail. In a third experiment, the efficacy of stabilization of the particle size was challenged by freezing of the RNA lipoplexes up to 10 times in the presence of the cryoprotectant trehalose (Table 8).
Data set [3] in a line: RNA integrity in RNA lipoplexes, accelerated storage at 25° C. Particulars: for stabilization of the RNA integrity by buffer system: 5 mM buffer, pH 6.0-7.0, liposomes with 2 mM acetic acid; for stability of the RNA in RNA lipoplexes by buffer system: 10% sucrose, 6.45 mM NaCl, liposomes with 5 mM acetic acid. The protocol:
RNA lipoplexes are incubated under accelerated conditions (25° C.) in the presence of an exemplarily cryoprotectant. RNA integrity was analyzed by capillary electrophoresis over 60 days. Additionally, RNA lipoplexes are incubated under at the anticipated storage conditions (−15° C.) in the presence of an exemplarily cryoprotectant for up to two years. RNA integrity was analyzed by capillary electrophoresis.
The respective RNA lipoplexes were investigated under accelerated conditions (25° C.) and in the frozen state (−15° C.).
RNA lipoplexes were formed with liposomes containing 2 mM of acetic acid. The respective RNA lipoplexes were investigated under accelerated conditions (25° C.) and in the frozen state (−15° C.).
Method: All RNA lipoplexes were automatically prepared in a single batch and the different concentrations of HEPES were adjusted by the addition of a cryoprotectant solution containing different amounts of HEPES. Particle sizes and polydispersity of RNA lipolexes were analyzed by photon correlation spectroscopy (PCS) measurements. Additionally, the RNA integrity was analyzed by capillary electrophoresis and the pH was measured.
In the following study, the concentration of HEPES which is required for stabilization of the pH of the RNA lipoplexes was investigated. RNA lipoplexes were formed with liposomes containing 5 mM of acetic acid and different concentrations of HEPES were adjusted by using different cryoprotectant solutions and the respective RNA lipoplexes were investigated under accelerated conditions (25° C.). The pH range from pH 6.2 to 7.2 was tested.
In the following study, the long-term stability of RNA lipoplexes in the frozen state was investigated with the combination of the reduced concentration of NaCl and Sucrose in the presence of either HEPES or Histidine as a buffering agent at a pH of 6.5.
To analyze the RNA integrity, the RNA had to be isolated from the RNA lipoplexes. Cryoprotected RNA lipoplexes were mixed with RNeasy kit (Qiagen) RLT buffer in a ratio of 1 to 3.5. Then ethanol was added in a ratio of 1 part ethanol to 1.8 parts LPX-RLT.
The further RNA isolation was done using the RNeasy Mini Kit protocol and the RNeasy Mini Kit from Qiagen.
The integrity of the RNA was analyzed using a 48 capillary Fragment Analyzer Automated System by Advanced Analytical (AATI) according to the manufacturers instructions. Results were analyzed via PROSize 2.0 version 2.0.051 data analysis software.
Method: BM1 RNA lipoplexes were prepared as described above. All other RNA lipoplexes were prepared as described above with liposomes containing 5 mM acetic acid.
BM1 RNA lipoplexes were cryoprotected and RNA concentration adjusted as described above. All other RNA lipoplexes were cryoprotected by adding cryoprotection buffer containing the respective buffer substance in a ratio of 1 to 6.7. Final pH values were titrated by adding HCl or NaOH to the cryoprotected RNA lipoplexes, ending up to the following compositions:
Titrated, cryoprotected RNA lipoplexes were filled into 10R glass vials and stored at ambient temperature (25° C.) for at least 61 days. At defined points in time, two vials per group were collected and the RNA integrity was determined.

How the values of data set [4] were obtained:
The mean value calculated from the first DOPE integrity values of the samples directly after manufacturing (0 month) was set to 1 as the initial integrity value of the respective study arm. The following values were normalized to this starting value.
Method: Liposomes were prepared as described above. To acidify the liposomes, different volumes of a 1 M stock solution of acetic acid was added to the liposomes with a total lipid concentration of 0.9 mM. After that, liposomes were stored at different acetic acid concentrations in a range from 0 mM to 3 mM up to a maximum of 6 months at different temperatures (4° C., 25° C. and 40° C.).

Data set [5] is described as follows: RNA integrity in RNA lipoplexes at 40° C. (capillary electrophoresis). Particulars: 21 days, no cryoprotectant.
Method: RNA lipoplexes are initially incubated under stress conditions (40° C.) in the absence of cryoprotectant. RNA integrity was analyzed by capillary electrophoresis over 21 days. In order to investigate the optimum pH range in the presence of an exemplary cryoprotectant, RNA lipoplexes were incubated in the presence of HEPES and sucrose at 40° C. and RNA integrity was analyzed for 21 days.
RNA integrity was analyzed as a key physicochemical parameter over 21 days.
How the values of data set [6] were obtained: The samples were frozen at −30° C. and then transferred to the respective temperature for long-term storage (either −15 or −30° C.). After defined storage time, samples were analyzed and preservation of the colloidal stability was analyzed by measuring the particle size using PCS. These experiments were performed at a total RNA concentration of 0.05 mg/mL.
Method: To investigate the minimum content of representative cryoprotectants as sucrose, trehalose, glucose and mixtures including dextran required for long-term storage at −20° C., RNA lipoplexes were frozen at a fixed cryoprotectant content in combination with varying NaCl concentrations. For monomeric or dimeric molecular cryoprotectants as glucose, sucrose, and trehalose a concentration of 22% (w/v) was adjusted. These formulations were frozen and stored at −15 to −40° C. and long-term stability was investigated by measuring the particle size using PCS after defined storage time.
The samples were frozen and stored at −20° C. After defined storage time, samples were analyzed and preservation of the colloidal stability was analyzed by measuring the particle size.
This is another data set of the same source.

The nature of data set [7]: Storage of drug product at −15° C., particle size and AF4. In kind it is physicochemical. Particulars: derived from AF4 data, worst-case conditions, 12 months. As to the method:
The AF4 method is a fractionation technique for characterization and separation of nanoparticles, polymers and proteins based on their diffusion coefficient. The separation is achieved using hydrodynamic forces applied in the flat separation channel. Within a channel, a parabolic flow profile is created due to the laminar flow of mobile phase against which a perpendicular force field is applied. The separation was performed by an elution inject program with an inject flow of 0.2 mL/min, detector flow of 0.5 mL/min and crossflow of 1.5 mL/min. The eluted particles were detected by multi-angle light scattering (MALS) detector (HELLEOS II, Wyatt Technology Corp.Santa Barbara, CA, USA). The LS traces were recorded by ASTRA Software Version 7.1.3.25 (Wyatt Technology Europe, Dernbach Germany).
Method: BM1 RNA lipoplexes were prepared as described above.
All other RNA lipoplexes were cryoprotected by adding cryoprotection buffers with no EDTA disodium salt (groups 0 mM and 0.4 mM EDTA disodium salt) or with EDTA disodium salt in a ratio of 1 to 6.7 to generate different EDTA disodium salt concentrations in the final PD composition.
Method: RNA lipoplexes were prepared with increasing amounts of NaCl for condensation of the RNA and liposomes without acetic acid. […]

[8] abbreviates: frozen with increasing amounts of cryoprotectant, Z-average, polydispersity, subvisible particles.
Where [9] appears, read: 70 mM NaCl, up to 10 times freezing.
[10] abbreviates: 90 mM NaCl, up to 10 times freezing.

Each structure is given as a SMILES string. “Also recorded” adds a separate entry of the source. Like-named read-outs stand apart in the source and are kept apart here.

Take `CCCCCCCC/C=C\CCCCCCCC(=O)OC[C@H](COP(=O)(O)OCCN)OC(=O)CCCCCCC/C=C\CCCCCCCC` [DOPE, 1,2-di-(9Z-octadecenoyl)-sn-glycero-3-phosphoethanolamine]: the “DOPE solubility in ethanol” value in data set [1] was found to be 59 mM.

For the molecule `OCC(O)CO` [Glycerin], the “stabilization of RNA lipoplexes during freezing” value in data set [2] (setting [8]) is reported as “can be used as cryoprotectants for RNA lipoplexes”.

Regarding `O=S(=O)(O)CCN1CCN(CCO)CC1` [HEPES, 2-[4-(2-hydroxyethyl)piperazin-1-yl]ethanesulfonic acid], in data set [3], the “stabilization of the RNA integrity by buffer system” value is given as “comparable stabilization of the RNA integrity” and the “stability of the RNA in RNA lipoplexes by buffer system” value is reported as “best stability”. Moreover, the “RNA stability in the drug product by buffer” value in data set [3] (61 days, pH 6.4 to 7.0, vs Histidine, MES, Na-Acetate) was “significantly enhanced RNA stability in the drug product”.

`N[C@@H](Cc1c[nH]cn1)C(=O)O` [Histidine]: in data set [3], the “stabilization of the RNA integrity by buffer system” value is listed as “slightly reduced stability” and the “stability of the RNA in RNA lipoplexes by buffer system” value is “lower stability”.

On to `CC(=O)O` [acetic acid], for which the “stability of DOPE in liposomes (DOPE ester hydrolysis)” value in data set [4] (0-3 mM acetic acid, 4° C., 25° C., 40° C., up to 6 months) was “Stability increases for all measured temperatures with increasing acetic acid concentration”. Also, the “acetic acid concentration above which stabilization efficacy plateaus” value in data set [4] (liposomes 0.9 mM total lipid) was “approx. 1 mM”.

Turning to `N=C(N)NCCC[C@H](N)C(=O)O` [arginine], the “stabilization of RNA lipoplexes during freezing” value in data set [2] (setting [8]) was “clearly destabilizes the RNA lipoplexes”.

As for `O=C([O-])[O-].[Na+].[Na+]` [carbonate, sodium carbonate], the “stabilization of the RNA (RNA integrity) by buffering system” value in data set [5] is on record as “did not result in comparable stabilization of the RNA”.

With `O=C(O)[C@@H]1CCCN1` [proline], the “stabilization of RNA lipoplexes during freezing” value in data set [2] is “can be used as cryoprotectants for RNA lipoplexes”.

For the molecule `O=P(O)(O)O` [sodium phosphate], the “stabilization of the RNA (RNA integrity) by buffering system” value in data set [5] is reported as “comparable results”.

For the molecule `OC[C@@H](O)[C@@H](O)[C@H](O)[C@@H](O)CO` [sorbitol], in data set [2] (setting [8]), the “stabilization of RNA lipoplexes during freezing” value is given as “can be used as cryoprotectants for RNA lipoplexes; also recorded: stabilization efficacy of sorbitol is lower”.

With `OC[C@H]1O[C@@](CO)(O[C@H]2O[C@H](CO)[C@@H](O)[C@H](O)[C@H]2O)[C@@H](O)[C@@H]1O` [sucrose], the “stabilization efficacy on long-term storage” value in data set [6] is recorded as “No difference in the stabilization efficacy”. Moreover, the “sucrose concentration to ensure long-term stability of the drug product” value in data set [7] was “at least 12 % (w/v)”. The “preservation of particle size after a single freezing step” value in data set [2] was “acceptable preservation of particle size”.

For `OC[C@H]1O[C@H](O[C@H]2O[C@H](CO)[C@@H](O)[C@H](O)[C@H]2O)[C@H](O)[C@@H](O)[C@@H]1O` [trehalose], in data set [6], the “stabilization efficacy on long-term storage” value is recorded as “No difference in the stabilization efficacy”. For the same molecule, the “trehalose sufficient for stabilization of RNA lipoplex particle characteristics” value in data set [2] (50 mM NaCl, even after 10 times freezing) is recorded as at least 12.5%. Besides, in data set [2] (setting [9]), the “trehalose required for exact preservation of the particle size” value is given as at least 22.5% and the “trehalose required for minimum stabilization” value was at least 12.5%. Moreover, in data set [2] (setting [10]), the “exact preservation of the particle size” value is reported as “could not be achieved even with the highest investigated concentration of 27.5%” and the “trehalose required for minimum stabilization” value was at least 15.0%. In data set [2], the “preservation of particle size after a single freezing step” value was “acceptable preservation of particle size”.
